In ChEMBL document CHEMBL3880386, “Combination comprising the MEK inhibitor N-{3-[3-cyclopropyl-5-(2-fluoro-4-iodo- phenylamino)-6,8-dimethyl-2,4,7-trioxo-3,4,6,7-tetrahydro-2H-pyrido[4,3-d]pyrimidin-1-yl]phenyl}acetamide and the Akt inhibitor N-{(1S)-2-amino-1-[(3-fluorophenyl)methyl]ethyl}-5-chloro-4-(4-chloro-1- …” (2014):

Key:
[1] = Growth inhibition of human MDA-MB-175-VII cells incubated for 72 hrs by Cell-titer-Glo reagent based assay; type: functional
[2] = Growth inhibition of human EFM19 cells incubated for 72 hrs by Cell-titer-Glo reagent based assay; type: functional; settings: EFM-19, 72 h
[3] = Growth inhibition of human RKO cells incubated for 72 hrs by Cell-titer-Glo reagent based assay; type: functional
[4] = Growth inhibition of human DLD1 cells incubated for 72 hrs by Cell-titer-Glo reagent based assay; type: functional; settings: DLD-1, 72 h
[5] = Growth inhibition of human T84 cells incubated for 72 hrs by Cell-titer-Glo reagent based assay; type: functional; settings: T84, 72 h
[6] = Growth inhibition of human KM12 cells incubated for 72 hrs by Cell-titer-Glo reagent based assay; type: functional; settings: KM12, 72 h
[7] = Growth inhibition of human SW837 cells incubated for 72 hrs by Cell-titer-Glo reagent based assay; type: functional; settings: SW837, 72 h
[8] = Growth inhibition of human LS1034 cells incubated for 72 hrs by Cell-titer-Glo reagent based assay; type: functional; settings: LS-1034, 72 h
[9] = Growth inhibition of human COLO205 cells incubated for 72 hrs by Cell-titer-Glo reagent based assay; type: functional; settings: COLO 205, 72 h
[10] = Growth inhibition of human SW1463 cells incubated for 72 hrs by Cell-titer-Glo reagent based assay; type: functional; settings: SW1463, 72 h
[11] = Growth inhibition of human HT-29 cells incubated for 72 hrs by Cell-titer-Glo reagent based assay; type: functional; settings: HT-29, 72 h
[12] = Growth inhibition of human SW480 cells incubated for 72 hrs by Cell-titer-Glo reagent based assay; type: functional; settings: SW480, 72 h
[13] = Growth inhibition of human SW1417 cells incubated for 72 hrs by Cell-titer-Glo reagent based assay; type: functional; settings: SW1417, 72 h
[14] = Growth inhibition of human A549 cells incubated for 72 hrs by Cell-titer-Glo reagent based assay; type: functional; settings: A549, 72 h
[15] = Growth inhibition of human NCI-H1355 cells incubated for 72 hrs by Cell-titer-Glo reagent based assay; type: functional; settings: NCI-H1355, 72 h
[16] = Growth inhibition of human NCI-H1792 cells incubated for 72 hrs by Cell-titer-Glo reagent based assay; type: functional; settings: NCI-H1792, 72 h
[17] = Growth inhibition of human NCI-H23 cells incubated for 72 hrs by Cell-titer-Glo reagent based assay; type: functional; settings: NCI-H23, 72 h
[18] = Growth inhibition of human MV522 cells incubated for 72 hrs by Cell-titer-Glo reagent based assay; type: functional; settings: MV522, 72 h
[19] = Growth inhibition of human NCI-H1155 cells incubated for 72 hrs by Cell-titer-Glo reagent based assay; type: functional; settings: NCI-H1155, 72 h
[20] = Growth inhibition of human SW1573 cells incubated for 72 hrs by Cell-titer-Glo reagent based assay; type: functional; settings: SW1573, 72 h
[21] = Growth inhibition of human HOP62 cells incubated for 72 hrs by Cell-titer-Glo reagent based assay; type: functional; settings: HOP-62, 72 h
[22] = Growth inhibition of human SW900 cells incubated for 72 hrs by Cell-titer-Glo reagent based assay; type: functional; settings: SW900, 72 h
[23] = Growth inhibition of human A427 cells incubated for 72 hrs by Cell-titer-Glo reagent based assay; type: functional; settings: A-427, 72 h
[24] = Growth inhibition of human HCC827 cells incubated for 72 hrs by Cell-titer-Glo reagent based assay; type: functional; settings: HCC827, 72 h
[25] = Growth inhibition of human Calu3 cells incubated for 72 hrs by Cell-titer-Glo reagent based assay; type: functional; settings: Calu-3, 72 h
[26] = Growth inhibition of human NCI-H727 cells incubated for 72 hrs by Cell-titer-Glo reagent based assay; type: functional; settings: NCI-H727, 72 h
[27] = Growth inhibition of human EFM19 cells at 1:10 molar ratio of compound in presence of N-{3-[3-cyclopropyl-5-(2-fluoro-4-iodo-phenylamino)-6,8-dimethyl- 2,4,7-trioxo-3,4,6,7-tetrahydro-2H-pyrido[4,3-d]pyrimidin-1-yl]phenyl}acetamide incubated for 72 hrs by Cell-titer-Glo reagent based assay; type: functional; settings: EFM-19, 72 h
[28] = Growth inhibition of human DLD1 cells at 1:10 molar ratio of compound in presence of N-{3-[3-cyclopropyl-5-(2-fluoro-4-iodo-phenylamino)-6,8-dimethyl- 2,4,7-trioxo-3,4,6,7-tetrahydro-2H-pyrido[4,3-d]pyrimidin-1-yl]phenyl}acetamide incubated for 72 hrs by Cell-titer-Glo reagent based assay; type: functional; settings: DLD-1, 72 h
[29] = Growth inhibition of human COR-L23 cells at 1:10 molar ratio of compound in presence of N-{3-[3-cyclopropyl-5-(2-fluoro-4-iodo-phenylamino)-6,8-dimethyl- 2,4,7-trioxo-3,4,6,7-tetrahydro-2H-pyrido[4,3-d]pyrimidin-1-yl]phenyl}acetamide incubated for 72 hrs by Cell-titer-Glo reagent based assay; type: functional; settings: COR-L23, 72 h
[30] = (§1) Growth inhibition of human Calu6 cells at 1:10 molar ratio of compound in presence of N-{3-[3-cyclopropyl-5-(2-fluoro-4-iodo-phenylamino)-6,8-dimethyl- 2,4,7-trioxo-3,4,6,7-tetrahydro-2H-pyrido[4,3-d]pyrimidin-1-yl]phenyl}acetamide incubated for 72 hrs by Cell-titer-Glo reagent based assay; type: functional; settings: Calu-6, 72 h
[31] = as §1, with “cells assessed combination index” for “cells”; type: functional, Calu-6
[32] = Growth inhibition of human SW837 cells at 1:10 molar ratio of compound in presence of N-{(1S)-2-amino-1-[(3-fluorophenyl)methyl]ethyl}-5-chloro-4-(4-chloro-1-methyl-1H-pyrazol-5-yl)-2-thiophenecar- boxamide incubated for 72 hrs by Cell-titer-Glo reagent based assay; type: functional; settings: SW837, 72 h
[33] = Growth inhibition of human HT-29 cells at 1:10 molar ratio of compound in presence of N-{(1S)-2-amino-1-[(3-fluorophenyl)methyl]ethyl}-5-chloro-4-(4-chloro-1-methyl-1H-pyrazol-5-yl)-2-thiophenecar- boxamide incubated for 72 hrs by Cell-titer-Glo reagent based assay; type: functional; settings: HT-29, 72 h
[34] = Growth inhibition of human SW900 cells at 1:10 molar ratio of compound in presence of N-{(1S)-2-amino-1-[(3-fluorophenyl)methyl]ethyl}-5-chloro-4-(4-chloro-1-methyl-1H-pyrazol-5-yl)-2-thiophenecar- boxamide incubated for 72 hrs by Cell-titer-Glo reagent based assay; type: functional; settings: SW900, 72 h
[35] = Growth inhibition of human NCI-H1792 cells assessed combination index at 1:10 molar ratio of compound in presence of N-{(1S)-2-amino-1-[(3-fluorophenyl)methyl]ethyl}-5-chloro-4-(4-chloro-1-methyl-1H-pyrazol-5-yl)-2-thiophenecar- boxamide incubated for 72 hrs by Cell-titer-Glo reagent based assay; type: functional
[36] = Growth inhibition of human NCI-H727 cells assessed combination index at 1:10 molar ratio of compound in presence of N-{(1S)-2-amino-1-[(3-fluorophenyl)methyl]ethyl}-5-chloro-4-(4-chloro-1-methyl-1H-pyrazol-5-yl)-2-thiophenecar- boxamide incubated for 72 hrs by Cell-titer-Glo reagent based assay; type: functional

SMILES | IC50 [1] | IC50 [2] | IC50 [3] | IC50 [4] | IC50 [5] | IC50 [6] | IC50 [7] | IC50 [8] | IC50 [9] | IC50 [10] | IC50 [11] | IC50 [12] | IC50 [13] | IC50 [14] | IC50 [15] | IC50 [16] | IC50 [17] | IC50 [18] | IC50 [19] | IC50 [20] | also measured
Cn1ncc(Cl)c1-c1cc(C(=O)N[C@H](CN)Cc2cccc(F)c2)sc1Cl [AFURESERTIB] | 794 nM | 430 nM | 1810 nM | > 10000 nM | > 10000 nM | 2250 nM | > 10000 nM | 4340 nM | 2570 nM | 9720 nM | 1380 nM | > 10000 nM | > 10000 nM | 5990 nM | 6680 nM | 7310 nM | 7120 nM | 3040 nM | 865 nM | > 8000 nM | IC50 [21]: > 10000 nM; IC50 [22]: > 10000 nM; IC50 [23]: > 8000 nM; IC50 [24]: > 8000 nM; IC50 [25]: > 8000 nM; IC50 [26]: 4800 nM; IC50 [27]: 300 nM; IC50 [28]: 932 nM; IC50 [29]: 368 nM; IC50 [30]: 31 nM; CI [31]: 0.79
CC(=O)Nc1cccc(-n2c(=O)n(C3CC3)c(=O)c3c(Nc4ccc(I)cc4F)n(C)c(=O)c(C)c32)c1 [TRAMETINIB] | 96 nM | > 1000 nM | 18 nM | 632 nM | 61 nM | 23 nM | 74 nM | 5 nM | 1 nM | 4 nM | 2 nM | 37 nM | 3 nM | 34 nM | 52 nM | 53 nM | 29 nM | 2 nM | > 1000 nM | > 1000 nM | IC50 [21]: > 1000 nM; IC50 [22]: 127 nM; IC50 [23]: 22 nM; IC50 [24]: > 1000 nM; IC50 [25]: 158 nM; IC50 [26]: 2 nM; IC50 [32]: 25 nM; IC50 [33]: 1 nM; IC50 [34]: 72 nM; CI [35]: 0.73; CI [36]: 1.09
